Test system: peptide-specific IgG in sera of cancer patients and healthy donors
Test: Measurement of anti-peptide IgG in plasma by LUMINEX multiplexed flow cytometric assay
Format: binding, human
Conditions: for Total: healthy donors with significant peptide-reactive IgG / donors tested: 10 healthy donors; for Total: healthy donors with significant peptide-reactive IgG / donors tested / Total: cancer patients with significant peptide-reactive IgG / patients tested: significant when fluorescence intensity exceeded 100 at 1/100 dilution; for Total: cancer patients with significant peptide-reactive IgG / patients tested: 71 cancer patients
In short: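 Plasma diluted 1/100 incubated with peptide-coupled colour-coded beads 2 h at RT, then biotinylated goat anti-human IgG (γ-chain) 1 h and streptavidin-PE 30 min; fluorescence read by multiplexed flow cytometry, >100 counted significant. Specificity checked by three rounds of absorption on corresponding versus irrelevant SCCA peptide.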

[1] = serum of Breast Ca. patient #36, 1:100 dilution
[2] = serum of Breast Ca. patient #37, 1:100 dilution
[3] = serum of Breast Ca. patient #38, 1:100 dilution
[4] = serum of Breast Ca. patient #39, 1:100 dilution
[5] = serum of Breast Ca. patient #40, 1:100 dilution
[6] = serum of Breast Ca. patient #41, 1:100 dilution
[7] = serum of Breast Ca. patient #42, 1:100 dilution
[8] = serum of Breast Ca. patient #43, 1:100 dilution
[9] = serum of Breast Ca. patient #44, 1:100 dilution
[10] = serum of Breast Ca. patient #45, 1:100 dilution
[11] = serum of Colon Ca. patient #66, 1:100 dilution
[12] = serum of Colon Ca. patient #67, 1:100 dilution
[13] = serum of Colon Ca. patient #68, 1:100 dilution
[14] = serum of Colon Ca. patient #69, 1:100 dilution
[15] = serum of Colon Ca. patient #70, 1:100 dilution
[16] = serum of Colon Ca. patient #71, 1:100 dilution
[17] = serum of Gastric Ca. patient #56, 1:100 dilution
[18] = serum of Gastric Ca. patient #57, 1:100 dilution
[19] = serum of Gastric Ca. patient #58, 1:100 dilution
[20] = serum of Gastric Ca. patient #59, 1:100 dilution
[21] = serum of Gastric Ca. patient #60, 1:100 dilution
[22] = serum of Gastric Ca. patient #61, 1:100 dilution
[23] = serum of Gastric Ca. patient #62, 1:100 dilution
[24] = serum of Gastric Ca. patient #63, 1:100 dilution
[25] = serum of Gastric Ca. patient #64, 1:100 dilution
[26] = serum of Gastric Ca. patient #65, 1:100 dilution
[27] = serum of Healthy Donor #1, 1:100 dilution
[28] = serum of Healthy Donor #2, 1:100 dilution
[29] = serum of Healthy Donor #3, 1:100 dilution
[30] = serum of Healthy Donor #4, 1:100 dilution
[31] = serum of Healthy Donor #5, 1:100 dilution
[32] = serum of Healthy Donor #6, 1:100 dilution
[33] = serum of Healthy Donor #7, 1:100 dilution
[34] = serum of Healthy Donor #8, 1:100 dilution
[35] = serum of Healthy Donor #9, 1:100 dilution
[36] = serum of Healthy Donor #10, 1:100 dilution
[37] = serum of Pancreas Ca. patient #46, 1:100 dilution
[38] = serum of Pancreas Ca. patient #47, 1:100 dilution
[39] = serum of Pancreas Ca. patient #48, 1:100 dilution
[40] = serum of Pancreas Ca. patient #49, 1:100 dilution
[41] = serum of Pancreas Ca. patient #50, 1:100 dilution
[42] = serum of Pancreas Ca. patient #51, 1:100 dilution
[43] = serum of Pancreas Ca. patient #52, 1:100 dilution
[44] = serum of Pancreas Ca. patient #53, 1:100 dilution
[45] = serum of Pancreas Ca. patient #54, 1:100 dilution
[46] = serum of Pancreas Ca. patient #55, 1:100 dilution
[47] = serum of Uterine cervical Ca. patient #1, 1:100 dilution
[48] = serum of Uterine cervical Ca. patient #2, 1:100 dilution
[49] = serum of Uterine cervical Ca. patient #3, 1:100 dilution
[50] = serum of Uterine cervical Ca. patient #4, 1:100 dilution
[51] = serum of Uterine cervical Ca. patient #5, 1:100 dilution
[52] = serum of Uterine cervical Ca. patient #6, 1:100 dilution
[53] = serum of Uterine cervical Ca. patient #7, 1:100 dilution
[54] = serum of Uterine cervical Ca. patient #8, 1:100 dilution
[55] = serum of Uterine cervical Ca. patient #9, 1:100 dilution
[56] = serum of Uterine cervical Ca. patient #10, 1:100 dilution
[57] = serum of Uterine cervical Ca. patient #11, 1:100 dilution
[58] = serum of Uterine cervical Ca. patient #12, 1:100 dilution
[59] = serum of Uterine cervical Ca. patient #13, 1:100 dilution
[60] = serum of Uterine cervical Ca. patient #14, 1:100 dilution
[61] = serum of Uterine cervical Ca. patient #15, 1:100 dilution
[62] = serum of Uterine cervical Ca. patient #16, 1:100 dilution
[63] = serum of Uterine cervical Ca. patient #17, 1:100 dilution
[64] = serum of Uterine cervical Ca. patient #18, 1:100 dilution
[65] = serum of Uterine cervical Ca. patient #19, 1:100 dilution
[66] = serum of Uterine cervical Ca. patient #20, 1:100 dilution
[67] = serum of Uterine cervical Ca. patient #21, 1:100 dilution
[68] = serum of Uterine cervical Ca. patient #22, 1:100 dilution
[69] = serum of Uterine cervical Ca. patient #23, 1:100 dilution
[70] = serum of Uterine cervical Ca. patient #24, 1:100 dilution
[71] = serum of Uterine cervical Ca. patient #25, 1:100 dilution
[72] = serum of Uterine cervical Ca. patient #26, 1:100 dilution
[73] = serum of Uterine cervical Ca. patient #27, 1:100 dilution
[74] = serum of Uterine cervical Ca. patient #28, 1:100 dilution
[75] = serum of Uterine cervical Ca. patient #29, 1:100 dilution
[76] = serum of Uterine cervical Ca. patient #30, 1:100 dilution
[77] = serum of Uterine cervical Ca. patient #31, 1:100 dilution
[78] = serum of Uterine cervical Ca. patient #32, 1:100 dilution
[79] = serum of Uterine cervical Ca. patient #33, 1:100 dilution
[80] = serum of Uterine cervical Ca. patient #34, 1:100 dilution
[81] = serum of Uterine cervical Ca. patient #35, 1:100 dilution

Question: What does the source list for “QFQKLLTEF (SCCA 84-92 peptide) [SCCA-derived peptide, position 84-92]”?
Answer: Total: healthy donors with significant peptide-reactive IgG / donors tested: 1/10; Total: cancer patients with significant peptide-reactive IgG / patients tested: 14/71; Fluorescence intesity [1]: 95; Fluorescence intesity [2]: 0; Fluorescence intesity [3]: 31; Fluorescence intesity [4]: 34; Fluorescence intesity [5]: 5; Fluorescence intesity [6]: 182; Fluorescence intesity [7]: 11; Fluorescence intesity [8]: 26; Fluorescence intesity [9]: 20; Fluorescence intesity [10]: 39; Fluorescence intesity [11]: 0; Fluorescence intesity [12]: 47; Fluorescence intesity [13]: 0; Fluorescence intesity [14]: 0; Fluorescence intesity [15]: 0; Fluorescence intesity [16]: 8; Fluorescence intesity [17]: 18; Fluorescence intesity [18]: 7; Fluorescence intesity [19]: 0; Fluorescence intesity [20]: 118; Fluorescence intesity [21]: 0; Fluorescence intesity [22]: 102; Fluorescence intesity [23]: 0; Fluorescence intesity [24]: 0; Fluorescence intesity [25]: 7; Fluorescence intesity [26]: 0; Fluorescence intesity [27]: 0; Fluorescence intesity [28]: 79; Fluorescence intesity [29]: 0; Fluorescence intesity [30]: 0; Fluorescence intesity [31]: 0; Fluorescence intesity [32]: 0; Fluorescence intesity [33]: 0; Fluorescence intesity [34]: 332; Fluorescence intesity [35]: 33; Fluorescence intesity [36]: 0; Fluorescence intesity [37]: 0; Fluorescence intesity [38]: 3; Fluorescence intesity [39]: 344; Fluorescence intesity [40]: 0; Fluorescence intesity [41]: 0; Fluorescence intesity [42]: 0; Fluorescence intesity [43]: 108; Fluorescence intesity [44]: 0; Fluorescence intesity [45]: 13; Fluorescence intesity [46]: 0; Fluorescence intesity [47]: 20; Fluorescence intesity [48]: 2; Fluorescence intesity [49]: 0; Fluorescence intesity [50]: 29; Fluorescence intesity [51]: 15; Fluorescence intesity [52]: 922; Fluorescence intesity [53]: 12; Fluorescence intesity [54]: 28; Fluorescence intesity [55]: 67; Fluorescence intesity [56]: 15; Fluorescence intesity [57]: 23; Fluorescence intesity [58]: 35; Fluorescence intesity [59]: 23; Fluorescence intesity [60]: 20; Fluorescence intesity [61]: 116; Fluorescence intesity [62]: 182; Fluorescence intesity [63]: 56; Fluorescence intesity [64]: 49; Fluorescence intesity [65]: 62; Fluorescence intesity [66]: 106; Fluorescence intesity [67]: 19; Fluorescence intesity [68]: 20; Fluorescence intesity [69]: 57; Fluorescence intesity [70]: 1819; Fluorescence intesity [71]: 17; Fluorescence intesity [72]: 128; Fluorescence intesity [73]: 28; Fluorescence intesity [74]: 139; Fluorescence intesity [75]: 14; Fluorescence intesity [76]: 33; Fluorescence intesity [77]: 108; Fluorescence intesity [78]: 18; Fluorescence intesity [79]: 141; Fluorescence intesity [80]: 15; Fluorescence intesity [81]: 18

Question: What does the source list for “RFKVEESYDL (SCCA 286-295 peptide) [SCCA-derived peptide, position 286-295]”?
Answer: Total: healthy donors with significant peptide-reactive IgG / donors tested: 4/10; Total: cancer patients with significant peptide-reactive IgG / patients tested: 19/71; Specificity of IgG reactive to the peptide (absorption assay: corresponding vs irrelevant SCCA peptide-coated wells (FIG. 3)): confirmed by absorption assay; Fluorescence intesity [1]: 292; Fluorescence intesity [2]: 54; Fluorescence intesity [3]: 95; Fluorescence intesity [4]: 117; Fluorescence intesity [5]: 32; Fluorescence intesity [6]: 321; Fluorescence intesity [7]: 47; Fluorescence intesity [8]: 58; Fluorescence intesity [9]: 155; Fluorescence intesity [10]: 80; Fluorescence intesity [11]: 4; Fluorescence intesity [12]: 35; Fluorescence intesity [13]: 0; Fluorescence intesity [14]: 8; Fluorescence intesity [15]: 16; Fluorescence intesity [16]: 45; Fluorescence intesity [17]: 243; Fluorescence intesity [18]: 9; Fluorescence intesity [19]: 27; Fluorescence intesity [20]: 258; Fluorescence intesity [21]: 79; Fluorescence intesity [22]: 286; Fluorescence intesity [23]: 0; Fluorescence intesity [24]: 7; Fluorescence intesity [25]: 40; Fluorescence intesity [26]: 37; Fluorescence intesity [27]: 21; Fluorescence intesity [28]: 219; Fluorescence intesity [29]: 9; Fluorescence intesity [30]: 0; Fluorescence intesity [31]: 239; Fluorescence intesity [32]: 2; Fluorescence intesity [33]: 0; Fluorescence intesity [34]: 516; Fluorescence intesity [35]: 100; Fluorescence intesity [36]: 138; Fluorescence intesity [37]: 0; Fluorescence intesity [38]: 37; Fluorescence intesity [39]: 946; Fluorescence intesity [40]: 97; Fluorescence intesity [41]: 0; Fluorescence intesity [42]: 0; Fluorescence intesity [43]: 275; Fluorescence intesity [44]: 41; Fluorescence intesity [45]: 48; Fluorescence intesity [46]: 24; Fluorescence intesity [47]: 75; Fluorescence intesity [48]: 0; Fluorescence intesity [49]: 21; Fluorescence intesity [50]: 229; Fluorescence intesity [51]: 58; Fluorescence intesity [52]: 869; Fluorescence intesity [53]: 15; Fluorescence intesity [54]: 30; Fluorescence intesity [55]: 93; Fluorescence intesity [56]: 14; Fluorescence intesity [57]: 23; Fluorescence intesity [58]: 44; Fluorescence intesity [59]: 29; Fluorescence intesity [60]: 19; Fluorescence intesity [61]: 129; Fluorescence intesity [62]: 147; Fluorescence intesity [63]: 63; Fluorescence intesity [64]: 48; Fluorescence intesity [65]: 62; Fluorescence intesity [66]: 102; Fluorescence intesity [67]: 21; Fluorescence intesity [68]: 25; Fluorescence intesity [69]: 60; Fluorescence intesity [70]: 1779; Fluorescence intesity [71]: 18; Fluorescence intesity [72]: 97; Fluorescence intesity [73]: 29; Fluorescence intesity [74]: 139; Fluorescence intesity [75]: 16; Fluorescence intesity [76]: 34; Fluorescence intesity [77]: 104; Fluorescence intesity [78]: 19; Fluorescence intesity [79]: 118; Fluorescence intesity [80]: 16; Fluorescence intesity [81]: 21
